# Assay results from publication PMC9298916, “The Discovery and Structure‐Activity Evaluation of (+)‐Floyocidin B and Synthetic Analogs” (Chemmedchem, 2021).
# Like-named read-outs stand apart in the source and are kept apart here.
# Key:
# M. tuberculosis H37Rv = assay: Growth inhibition, M. tuberculosis H37Rv (Middlebrook 7H9, CellTiter-Blue); format: cell-based; details: M. tuberculosis H37Rv (Mtb), 6 days
# E. coli ATCC25922 = assay: Micro-broth dilution growth inhibition, E. coli (CAMH); format: cell-based; details: Escherichia coli, 18 h
# E. coli ATCC25922 MHC = assay: Micro-broth dilution growth inhibition, E. coli in CAMH with 44 mM sodium bicarbonate (MHC); format: cell-based; details: Escherichia coli, ATCC25922, 18 h, E. coli ATCC25922 MHC (CAMH + 44 mM sodium bicarbonate), read-out: MIC
# P. aeruginosa ATCC27853 = assay: Micro-broth dilution growth inhibition, P. aeruginosa; format: cell-based; details: Pseudomonas aeruginosa, 18 h
# S. aureus ATCC25923 = assay: Micro-broth dilution growth inhibition, S. aureus; format: cell-based; details: Staphylococcus aureus, 18 h
# [1] = test system: M. catarrhalis ATCC25238I; assay: Micro-broth dilution growth inhibition, M. catarrhalis; format: cell-based
# C. albicans FH2173 = assay: Micro-broth dilution growth inhibition, C. albicans (ATP quantification); format: cell-based; details: Candida albicans, FH2173, 48 h, read-out: MIC
# physchem = format: physicochemical; details: for chromatographic logD: pH 7.4, Log D pH 7.4
# Description: 2.4. Assay descriptions for the profiling of all four stereoisomers of (+)-floyocidin B and (−)-avicennone C,1 the avicennone C-floyocidin B hybrids 35, ent-35, 36 and ent-36 as well as the natural product (+)-floyocidin A.
# Determination of logD 7.4
# LogD values at pH 7.4 were determined by a standardized HPLC method derived from by Genieser et al.8 The calculation of the logD value for measured compounds is performed by comparison of the retention times with standard compounds of known distribution coefficients between 1 -octanol and water at pH 7.4. […]
# 8 Krass, J. D., Jastorff, B., and Genieser, H.-G. Anal. Chem. 1997, 69, 2575–2581. […]
# [2] = Microsomal stability, human; format: in vitro ADME; details: 1 µM compound; for microsomal CLint at 1 µM / half-life at 1 µM: human, pooled liver microsomes, pH 7.4, human liver microsomes 0.5 mg/mL; for half-life at 1 µM: read-out: Microsomal stability t1/2, Human
# Description: (§1) 2.4. Assay descriptions for the profiling of all four stereoisomers of (+)-floyocidin B and (−)-avicennone C,1 the avicennone C-floyocidin B hybrids 35, ent-35, 36 and ent-36 as well as the natural product (+)-floyocidin A. […]
# (§2) Pooled liver microsomes are purchased. Microsomes are stored at –80 °C prior to use. Microsomes (final protein concentration 0.5 mg/mL), 0.1 M phosphate buffer pH 7.4, and test compound (final substrate concentration 1 µM; final DMSO concentration 0.25%) are preincubated at 37 °C prior to the addition of NADPH (final concentration 1 mM) to initiate the reaction. A minus cofactor control i ncubation is included for each compound tested where 0.1 M phosphate buffer pH 7.4 is added instead of NADPH. Two control compounds are included. All incubations are performed singularly for each test compound. Each compound is incubate d for 0, 5, 15, 30, and 45 min. The control is incubated for 45 min only. The reactions are stopped by transferring incubate into acetonitrile at the appropriat e time points, in a 1:3 ratio. The termination plates are centrifuged at 3,000 rpm for 20 min at 4 °C to precipitate the protein.
# (§3) From a plot of ln peak area ratio (compound peak area/internal standard peak area) against time, the gradient of the line is determined. Subsequently, half -life and intrinsic clearance are calculated using the equations below:
# (§4) Elimination rate constant (k) = (- gradient)
# (§5) Intrinsic clearance (CL )(µL/min/mg protein) = V x 0.693 […]
# (§6) where V = Incubation volume (µL)/Microsomal protein (mg)
# (§7) Relevant control compounds are assessed, ensuring intrinsic clearance values fall within the specified limits (if available). […]
# [3] = Microsomal stability, mouse; format: in vitro ADME; details: 1 µM compound; for microsomal CLint at 1 µM / half-life at 1 µM: mouse, pooled liver microsomes, pH 7.4, mouse liver microsomes 0.5 mg/mL; for microsomal CLint at 1 µM: read-out: Microsomal stability CLint, Mouse; for half-life at 1 µM: read-out: Microsomal stability t1/2, Mouse
# Description: as §1, §2, §3, §4, §5, §6, §7
# THP1 cells = assay: Cytotoxicity on THP1 cells (CellTiterGlo); format: cell-based; details: for Cytotoxicity TC50 THP1: THP1 cells, 40 h
# Description: (§8) Cytotoxicity on THP1 and HepG2 cells
# (§9) After 4 hours of HepG2 cell line (provided by ATCC) plating at 2.500 cells /well in 384-w plates, compounds were added to the cells. After an incubation at 37 °C for 40 h, the CellTiterGlo assay (provided by Promega) was performed.
# (§10) Luminescence measurement is related to the cell viability. Compound activity is determined by using the control wells with no treatment as control (100% of growth). The assay was performed identically with THP1 cells. All incubations were […]
# HepG2 cells = assay: Cytotoxicity on HepG2 cells (CellTiterGlo); format: cell-based; details: 40 h
# Description: as §8, §9, §10
# [4] = Cellular permeability assay utilizing Caco2 cell line; details: human
# Caco-2 cells = assay: as above; details: 10 µM, 120 min
# [5] = Mycobacterium tuberculosis, 144 h, read-out: MIC
# [6] = Moraxella catarrhalis, ATCC25238I, read-out: MIC
# [7] = A2B in the presence of elacridar
# [8] = human liver microsomes 0.5 mg/mL
# [9] = mouse liver microsomes 0.5 mg/mL
SMILES,MIC (M. tuberculosis H37Rv; [5]) [µg/mL],MIC (E. coli ATCC25922) [µg/mL],MIC (E. coli ATCC25922 MHC) [µg/mL],MIC (P. aeruginosa ATCC27853) [µg/mL],MIC (S. aureus ATCC25923) [µg/mL],"MIC [1, 6] [µg/mL]",MIC (C. albicans FH2173) [µg/mL],chromatographic logD (physchem),microsomal CLint at 1 µM [2] [µL/min/mg],half-life at 1 µM [2] [min],microsomal CLint at 1 µM [3] [µL/min/mg],half-life at 1 µM [3] [min],Cytotoxicity TC50 THP1 (THP1 cells) [µM],Cytotoxicity TC50 HepG2 (HepG2 cells) [µM],Caco‐2 permeability recovery +Elacridar (Caco-2 cells; [7]),Caco‐2 permeability recovery A2B (Caco-2 cells) [%],Caco‐2 permeability Papp A2B (Caco-2 cells),further results
"CCC/C=C/c1cc2c(cn1)[C@@H](O)[C@H]1O[C@@]1(CC=C(C)C)C2=O [compound 4, (1aR,2R,7aR)‐2‐Hydroxy‐7 a‐(3‐methylbut‐2‐en‐1‐yl)‐5‐((E)‐pent‐1‐en‐1‐yl)‐1 a,7 a‐dihydrooxireno[2,3‐g]isoquinolin‐7(2H)‐one]",9.4,> 128,> 128,> 128,> 128,16,> 128,4.01,72.7,19.1,349,3.97,5.84,4.5,14.2%,10.1,,"Papp at 120 min, 10 µM ([4]; Caco-2, Caco‐2 permeability Papp +Elacridar, A2B in the presence of elacridar): 5.62 ×10⁻⁶ cm/s; Papp A→B at 120 min, 10 µM ([4]; Caco-2, Caco‐2 permeability Papp A2B, A2B): 4.11 ×10⁻⁶ cm/s"
CCCC=Cc1ccc2c(c1)C(=O)C1(CC=C(C)C)OC1C2O (centres unmarked) [compound 35],9.4,> 128,> 128,> 128,> 128,64,> 128,4.7,45.5,30.5,1040,1.33,12.9,9.39,29.6%,76.0,135 10^−7 cm s^−1,Caco‐2 permeability Papp +Elacridar (Caco-2 cells; [7]): 181 10^−7 cm s^−1
CCC/C=C/c1ccc2c(c1)C(=O)[C@]1(CC=C(C)C)O[C@@H]1[C@H]2O [compound 36],9.4,> 128,> 128,> 128,> 128,8,> 128,4.73,39.7,34.9,259,5.36,15.1,16.1,,,,Cytotoxicity relative to 4 (THP1 cells; TC50 in THP‐1 and HepG2 compared with 4): three times less cytotoxic than 4
CCCC=Cc1ccc2c(c1)C(=O)C1(CC=C(C)C)OC1C2O (stereo not drawn) [ent‐35],,,,,,,,,,,,,12.9,14.7,[b] (46.1) %,37.2,162 10^−7 cm s^−1,"MIC (M. tuberculosis H37Rv): 9.4 µg/mL; MIC [1]: 32 µg/mL; Log D pH 7.4 (physchem; pH 7.4): 4.72; Microsomal stability CLint, Human [2, 8]: 40.5 μL/min/mg protein; Microsomal stability t1/2, Human [2, 8]: 34.3 min; Microsomal stability CLint, Mouse [3, 9]: 561 μL/min/mg protein; Microsomal stability t1/2, Mouse [3, 9]: 2.47 min; Caco‐2 permeability recovery +Elacridar (Caco-2 cells; A2B in the presence of elacridar, listed as ent-35): 46.1%; Caco‐2 permeability recovery A2B (Caco-2 cells; listed as ent-35): 37.2%"
